# According to the supplement of paper PMC10307832:
# Tests used:
# Test in all cases: relative viability (nuclei count vs DMSO), 5 days (fraction); higher = more cells survive
# Omipalisib + Linsitinib = compound: COc1ncc(-c2ccc3nccc(-c4ccnnc4)c3c2)cc1NS(=O)(=O)c1ccc(F)cc1F [Omipalisib] + C[C@]1(O)C[C@@H](c2nc(-c3ccc4ccc(-c5ccccc5)nc4c3)c3c(N)nccn32)C1 [Linsitinib] (partner 1 µM)
# How it was run: (§1)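 Lung cancer cell lines, seeded in 1536-well plates, were treated the following day by pin tool with a single drug or with five library-drug doses (not always all listed) in √10 steps on top of a fixed anchor-drug dose. Cells were fixed and nuclei stained in one step after 5 days, and nuclei were counted. Relative viability is the nuclei count for treated wells divided by that for vehicle wells, reported as medians of duplicate plates.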
# Omipalisib + Foretinib = compound: COc1ncc(-c2ccc3nccc(-c4ccnnc4)c3c2)cc1NS(=O)(=O)c1ccc(F)cc1F [Omipalisib] + COc1cc2c(Oc3ccc(NC(=O)C4(C(=O)Nc5ccc(F)cc5)CC4)cc3F)ccnc2cc1OCCCN1CCOCC1 [Foretinib] (partner 0.25 µM)
# How it was run: as §1
# Omipalisib + Pemetrexed = compound: COc1ncc(-c2ccc3nccc(-c4ccnnc4)c3c2)cc1NS(=O)(=O)c1ccc(F)cc1F [Omipalisib] + Nc1nc2[nH]cc(CCc3ccc(C(=O)N[C@@H](CCC(=O)O)C(=O)O)cc3)c2c(=O)[nH]1 [Pemetrexed] (partner 0.2 µM)
# How it was run: as §1
# Omipalisib + Dasatinib = compound: COc1ncc(-c2ccc3nccc(-c4ccnnc4)c3c2)cc1NS(=O)(=O)c1ccc(F)cc1F [Omipalisib] + Cc1nc(Nc2ncc(C(=O)Nc3c(C)cccc3Cl)s2)cc(N2CCN(CCO)CC2)n1 [Dasatinib] (partner 0.075 µM)
# How it was run: as §1
# Omipalisib + Navitoclax = compound: COc1ncc(-c2ccc3nccc(-c4ccnnc4)c3c2)cc1NS(=O)(=O)c1ccc(F)cc1F [Omipalisib] + CC1(C)CCC(c2ccc(Cl)cc2)=C(CN2CCN(c3ccc(C(=O)NS(=O)(=O)c4ccc(N[C@H](CCN5CCOCC5)CSc5ccccc5)c(S(=O)(=O)C(F)(F)F)c4)cc3)CC2)C1 [Navitoclax] (partner 0.5 µM)
# How it was run: as §1
# Omipalisib + Decitabine = compound: COc1ncc(-c2ccc3nccc(-c4ccnnc4)c3c2)cc1NS(=O)(=O)c1ccc(F)cc1F [Omipalisib] + Nc1ncn([C@H]2C[C@H](O)[C@@H](CO)O2)c(=O)n1 [Decitabine] (partner 2 µM)
# How it was run: as §1
Cell Line,relative viability (Omipalisib + Linsitinib; first compound 0.0003 µM),relative viability (Omipalisib + Linsitinib; first compound 0.003 µM),relative viability (Omipalisib + Linsitinib; first compound 0.03 µM),relative viability (Omipalisib + Foretinib; first compound 0.0003 µM),relative viability (Omipalisib + Foretinib; first compound 0.003 µM),relative viability (Omipalisib + Foretinib; first compound 0.03 µM),relative viability (Omipalisib + Pemetrexed; first compound 0.0003 µM),relative viability (Omipalisib + Pemetrexed; first compound 0.003 µM),relative viability (Omipalisib + Pemetrexed; first compound 0.03 µM),relative viability (Omipalisib + Dasatinib; first compound 0.0003 µM),relative viability (Omipalisib + Dasatinib; first compound 0.003 µM),relative viability (Omipalisib + Dasatinib; first compound 0.03 µM),relative viability (Omipalisib + Navitoclax; first compound 0.0003 µM),relative viability (Omipalisib + Navitoclax; first compound 0.003 µM),relative viability (Omipalisib + Navitoclax; first compound 0.03 µM),relative viability (Omipalisib + Decitabine; first compound 0.0003 µM),relative viability (Omipalisib + Decitabine; first compound 0.003 µM),relative viability (Omipalisib + Decitabine; first compound 0.03 µM)
PC-14,0.954,0.931,0.794,0.904,0.961,0.967,0.151,0.155,0.161,0.31,0.237,0.079,1.02,1.07,0.923,0.19,0.248,0.222
EPLC-272H,1.38,0.893,0.248,0.574,0.388,0.196,0.34,0.39,0.235,0.387,0.239,0.113,1.12,0.945,0.327,0.346,0.269,0.172
HCC-15,0.929,0.77,0.799,0.944,0.814,0.721,0.23,0.213,0.209,0.552,0.349,0.42,0.667,0.54,0.462,0.591,0.394,0.372
NCI-H1993,0.697,0.765,0.589,0.805,0.633,0.594,0.529,0.478,0.513,0.498,0.545,0.486,0.722,0.703,0.618,0.6,0.483,0.447
NCI-H23,0.596,0.397,0.346,0.851,0.681,0.461,0.692,0.44,0.374,0.826,0.468,0.332,0.748,0.421,0.35,0.308,0.24,0.243
SK-LU-1,1.03,1,0.679,0.869,0.662,0.479,1.04,0.834,0.751,0.175,0.121,0.109,0.926,0.237,0.625,0.633,0.548,0.494
NCI-H1437,0.952,0.824,0.404,1.26,1.35,0.918,0.276,0.298,0.27,0.411,0.323,0.202,1.03,0.974,0.517,0.519,0.564,0.398
NCI-H3122,1.11,0.699,0.392,0.942,0.802,0.522,0.214,0.192,0.202,0.641,0.0596,0.315,1.02,0.991,0.402,0.319,0.258,0.139
NCI-H520,0.9,0.672,0.275,0.742,0.441,0.226,0.58,0.433,0.184,0.159,0.162,0.131,0.972,0.714,0.292,0.51,0.369,0.233
NCI-H1734,0.731,0.484,0.359,0.754,0.446,0.268,0.419,0.431,0.402,0.396,0.243,0.194,0.763,0.444,0.275,0.442,0.331,0.347
NCI-H1975,0.857,0.614,0.206,0.991,0.672,0.287,0.35,0.3,0.22,0.33,0.249,0.113,1.03,0.635,0.24,0.398,0.296,0.178
LU99A,0.484,0.382,0.261,0.718,0.464,0.327,0.186,0.192,0.191,0.482,0.331,0.267,0.5,0.512,0.293,0.912,0.519,0.311
NCI-H1793,0.648,0.416,0.288,0.559,0.399,0.244,0.696,0.463,0.24,0.331,0.279,0.273,0.368,0.29,0.204,0.398,0.282,0.214
NCI-H1355,0.737,0.584,0.358,0.764,0.643,0.416,1.01,0.868,0.52,0.596,0.402,0.307,0.931,0.538,0.343,0.366,0.326,0.242
NCI-H2023,0.513,0.342,0.234,0.908,0.433,0.233,0.208,0.197,0.139,0.446,0.213,0.114,0.959,0.633,0.313,0.177,0.215,0.16
LOU-NH91,0.876,0.717,0.512,0.901,0.838,0.564,0.408,0.431,0.448,0.521,0.381,0.355,0.635,0.585,0.346,0.857,0.747,0.665
NCI-H838,0.902,0.74,0.346,0.953,0.703,0.375,0.25,0.229,0.214,0.263,0.223,0.23,1.1,0.997,0.501,0.471,0.391,0.268
A-427,1.11,1.09,0.968,0.865,1.01,0.718,0.983,0.922,0.931,0.686,0.434,0.625,0.957,0.732,0.872,0.538,0.443,0.417
NCI-H2347,0.892,0.947,0.61,0.905,0.699,0.454,0.45,0.484,0.445,0.286,0.253,0.26,0.764,0.671,0.278,0.538,0.523,0.464
EMC-BAC-2,0.797,0.693,0.438,0.91,0.637,0.482,0.481,0.463,0.418,0.261,0.231,0.21,1.12,0.92,0.566,0.664,0.663,0.654
EKVX,1.06,0.76,0.456,0.649,0.801,0.183,0.491,0.437,0.264,0.398,0.302,0.175,0.979,0.773,0.48,0.305,0.289,0.238
NCI-H1651,0.931,0.737,0.417,0.664,0.497,0.489,0.55,0.506,0.433,0.342,0.297,0.272,0.834,0.752,0.484,0.528,0.476,0.446
LCLC-97TM1,0.172,0.135,0.134,0.934,0.468,0.189,0.191,0.146,0.14,0.883,0.74,0.472,0.503,0.149,0.164,0.216,0.168,0.161
SW 1573,0.777,0.476,0.465,0.693,0.595,0.401,0.568,0.549,0.366,0.165,0.331,0.101,0.921,0.745,0.475,0.306,0.241,0.239
SK-MES-1,1.02,0.785,0.69,0.73,0.461,0.344,0.994,0.744,0.376,0.316,0.174,0.136,1.21,0.836,0.464,0.363,0.262,0.241
NCI-H2009,1.13,1.18,0.946,1.15,1.07,0.922,1.04,1.15,0.892,0.272,0.215,0.157,1.22,1.14,0.897,0.355,0.389,0.324
COR-L23,0.813,0.771,0.38,0.974,1.01,0.719,0.2,0.2,0.197,0.487,0.323,0.239,1.15,0.778,0.432,0.433,0.355,0.296
201T,1.03,0.916,0.769,1.12,0.864,0.308,0.342,0.309,0.266,0.582,0.413,0.323,1.21,1.2,0.838,0.816,0.809,0.53
NCI-H322M,0.971,0.72,0.506,0.888,0.684,0.566,0.584,0.585,0.452,0.234,0.245,0.257,1.21,0.823,0.515,0.711,0.643,0.527
